Series [1] relates to HBV replication in HepG2.2.15 cells. The series can be described thus: Anti-HBV activity in vitro in HepG2.2.15 cells (extracellular HBV DNA by qPCR). Type of series: cell-based. The note with it: Hepatitis B virus, HepG2.2.15, Anti-HBV activity in HepG2.2.15 cells; read-out: EC50. The procedure, abridged: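 EC50 is derived from qPCR of extracellular viral DNA in culture supernatant after 5-day compound exposure. Cells (HepG2.2.15, stably carrying the HBV genome) were plated and incubated overnight at 37 °C before half-log dilution series were added at 0.5% final DMSO.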

Series [2] concerns CYP3A4. The conditions noted are these: human, 24 h.
Protocol: Human cryopreserved hepatocytes (Life Technologies, Carlsbad, USA) were thawed and cultured in collagen I coated 96-well plates with a density of 52,000 cells/well. After attachment, medium was changed and cells were pre-cultured overnight in hepatocyte maintenance medium (HMM; Lonza, Switzerland).
Test compounds were dosed to the cells next morning at an indicated concentration (up to 10 μM) in HMM culture media containing gentamycin and a constant 0.1% DMSO. Similarly, dilutions of the positive inducer compounds omeprazole (prototypical inducer of human CYP1A2; final concentrations: 1 and 10 μM), phenobarbital (prototypical inducer of human CYP2B6; final concentrations: 100 and 1000 μM) and rifampicin (prototypical inducer of human CYP3A4; final concentrations: 1 and 10 μM) were prepared from 1000 fold DMSO stock solutions in HMM containing gentamycin. Medium change was then performed and cells were exposed for 24 hours to test compounds, positive inducer compounds, or vehicle (0.1% DMSO), respectively.
At the end of the compound exposure period, medium was removed and cells lysed using 100 μL/well MagNA Pure LC RNA isolation tissue lysis buffer (Roche Diagnostics AG, Rotkreuz, Switzerland). Plates were then sealed and frozen at −80° C. until further workup.
mRNA isolation was performed using the MagNA Pure 96 system (Roche Diagnostics AG, Rotkreuz, Switzerland) and the respective cellular RNA large volume kit (Roche Diagnostics AG, Rotkreuz, Switzerland) from thawed samples diluted 1:1 with PBS. The volume of the cell lysis and an elution volume of 100 μL were used. 20 μL of the resulting mRNA suspension was then used for reverse transcription using 20 μL of the transcript or first stand cDNA synthesis kit (Roche prime Supply, Mannheim, Germany). The resulting cDNA was diluted with 40 μL of H2O before using for qRT-PCR. qRT-PCR was performed by using the forward and the reverse primer, the corresponding UPL (all from Microsynth, Balgach, Switzerland) and the Taqman Fast advanced master mix (Applied Biosystems), on an ABI 7900 machine (Applied Biosystems).
qRT-PCR Ct-values for the respective P450s were put into relation to the Ct-value of RN18S1 (microsynth, Balgach, Switzerland) of the same sample. Doing so, a respective Δct-value was calculated. Using the average of all Δct-values for the vehicle control samples, a ΔΔct-value was calculated for each sample (ΔΔct-value(sample)=Δct-value(sample)−average of Δct-value of all vehicle controls). The fold induction of the respective sample was calculated as 2^(−ΔΔct). The individual fold induction values were then averaged per treatment condition (usually n=3 biological replicates).
Relative induction values to the respective positive inducer compound condition (10 μM omeprazole for CYP1A2; 1000 μM Phenobarbital for CYP2B6; 10 μM rifampicin for CYP3A4) were then calculated from the fold induction values as follows: Relative induction(%)=100×(T−V)/(P−V)
T: fold induction of test compound condition
P: fold induction of positive inducer compound
V: fold induction of vehicle controls
A short description of series [3]: Lyophilisation solubility assay (Lysa). In kind it is physicochemical. The note with it: pH 6.5, aqueous buffer, thermodynamic from solid. A digest of the protocol: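 DMSO was evaporated from 10 mM stocks, and residues were taken up in 0.05 M phosphate buffer pH 6.5, stirred 1 h, shaken 2 h and left overnight. Filtrates were quantified by UV or HPLC-UV against a four-point calibration, in duplicate. Values are in μg/ml, with a lower-bound value when >80% dissolved.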

The nature of series [4]: Human microsomal clearance assay. Type of series: in vitro ADME. The conditions noted are these: human, 1 μM, pH 7.4. The procedure, abridged: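 Liver microsomes (0.5 mg/mL protein) were incubated with 1 μM compound at 37 °C, pH 7.4 phosphate, with an NADPH-regenerating system. Samples at 0-30 min were quenched and measured by LC-MS/MS for parent loss. No-NADPH controls were included.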

Series [5] in a line: Cytotoxicity (CCK-8 cell viability) and selectivity index. The note with it: human, HepDE19 cells; cytotoxicity, concentration resulting in death of 50% of host cells. In kind it is cell-based, human. A digest of the protocol:
(§1)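 HepDE19 cells (5×10^3/well) were treated with compounds as for the EC50 runs and, after 5 days, given CCK-8 for 2 h at 37° C. Absorbance was read at OD450 and OD630, and CC50 was taken as the concentration killing 50% of host cells.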

For series [6], the system named is HepDE19 cells. Described as above. Type of series: cell-based, human. The note with it: CC50 value/EC50 value. A digest of the protocol:
as §1

Experimental findings from patent US9266904B2, “6-bridged heteroaryldihydropyrimidines for the treatment and prophylaxis of hepatitis B virus infection” (priority 2013, dated 2016) are described below.

In brackets after ≈: the same amount, converted by molar mass. Where only a bound is given, the exact number is not on record here.

`COC(=O)C1=C(CN2C3COCC2CN(C)C3)NC(c2nccs2)=N[C@H]1c1ccc(F)cc1Cl` [Example 12, (R)-4-(2-Chloro-4-fluoro-phenyl)-6-(7-methyl-3-oxa-7,9-diaza-bicyclo[3.3.1]non-9-ylmethyl)-2-thiazol-2-yl-1,4-dihydro-pyrimidine-5-carboxylic acid methyl ester]: the EC50 in series [1] is 566 nM. In series [2], the “% of Positive control (10 μM Rifampicin)” value is 21%. Further, the thermodynamic solubility in series [3] was over 597 µg/mL.

Take `COC(=O)C1=C(CN2C3COCC2c2cn[nH]c2C3)NC(c2nccs2)=N[C@H]1c1ccc(F)cc1Cl` (stereo partly drawn) [Example 31, (R)-4-(2-Chloro-4-fluoro-phenyl)-6-(10-oxa-4,5,12-triaza-tricyclo[6.3.1.0*2,6*]dodeca-2(6),3-dien-12-ylmethyl)-2-thiazol-2-yl-1,4-dihydro-pyrimidine-5-carboxylic acid methyl ester]: in series [1], the EC50 is 35 nM. Also, the “% of Positive control (10 μM Rifampicin)” value in series [2] worked out at 25%.

Regarding `COC(=O)C1=C(CN2CC3CC(C2)O3)NC(c2nccs2)=N[C@H]1c1ccc(F)cc1Cl` [Example 38, (R)-4-(2-Chloro-4-fluoro-phenyl)-6-(6-oxa-3-aza-bicyclo[3.1.1]hept-3-ylmethyl)-2-thiazol-2-yl-1,4-dihydro-pyrimidine-5-carboxylic acid methyl ester], the EC50 in series [1] is 114 nM. Also, the “% of Positive control (10 μM Rifampicin)” value in series [2] turned out to be 35%.

Regarding `COC(=O)C1=C(CN2C3COCC2C(NC(C)=O)C3)NC(c2nccs2)=N[C@H]1c1ccc(F)cc1Cl` (stereo partly drawn) [Example 48, Methyl (4R)-6-[(6-acetamido-3-oxa-8-azabicyclo[3.2.1]octan-8-yl)methyl]-4-(2-chloro-4-fluoro-phenyl)-2-thiazol-2-yl-1,4-dihydropyrimidine-5-carboxylate], in series [1], the EC50 is 19.4 nM. The same compound displayed a CLh in series [4] of 4.8 mL/min/kg. For the same compound, in series [2], the “% of Positive control (10 μM Rifampicin)” value worked out at 17%. In series [3], this compound gave a thermodynamic solubility of 100 µg/mL (≈ 187 µM).

For the compound `CCOC(=O)C1=C(CN2[C@@H]3COC[C@H]2C[C@@H](CC(=O)O)C3)NC(c2nccs2)=N[C@H]1c1cccc(F)c1Cl` [Example 65, Endo-2-[(1S,5R)-9-[[(4R)-4-(2-chloro-3-fluoro-phenyl)-5-ethoxycarbonyl-2-thiazol-2-yl-1,4-dihydropyrimidin-6-yl]methyl]-3-oxa-9-azabicyclo[3.3.1]nonan-7-yl]acetic acid], the EC50 in series [1] was 11.8 nM. Besides, in series [4], the CLh was 2.8 mL/min/kg. The compound also gave a CC50 at 5 days in series [5] of 71000 nM. Further, the “Selectivity index (CC50/EC50)” value in series [6] is given as 5980. Besides, in series [3], the solubility (thermodynamic) amounted to 375 µg/mL (≈ 666 µM).

In the case of `CCOC(=O)C1=C(CN2[C@@H]3COC[C@H]2C[C@H](CC(=O)O)C3)NC(c2nccs2)=N[C@H]1c1ccc(F)cc1Br` [Example 67, Exo-2-[(1S,5R)-9-[[(4R)-4-(2-bromo-4-fluoro-phenyl)-5-ethoxycarbonyl-2-thiazol-2-yl-1,4-dihydropyrimidin-6-yl]methyl]-3-oxa-9-azabicyclo[3.3.1]nonan-7-yl]acetic acid], in series [1], the EC50 was determined as 4 nM. In addition, the CLh in series [4] was determined as 2.9 mL/min/kg. The compound further returned a CC50 at 5 days in series [5] of over 100000 nM. In addition, the “Selectivity index (CC50/EC50)” value in series [6] is reported as over 25000. For the same compound, the solubility (thermodynamic) in series [3] stood at 319 µg/mL (≈ 525 µM).

Regarding `CCOC(=O)C1=C(CN2[C@@H]3COC[C@H]2C[C@H](CC(=O)O)C3)NC(c2nccs2)=N[C@H]1c1ccccc1Cl` [Example 72, Exo-2-[(1S,5R)-9-[[(4R)-4-(2-chlorophenyl)-5-ethoxycarbonyl-2-thiazol-2-yl-1,4-dihydropyrimidin-6-yl]methyl]-3-oxa-9-azabicyclo[3.3.1]nonan-7-yl]acetic acid], the EC50 in series [1] turned out to be 13.2 nM. This compound registered a CLh in series [4] of 2.8 mL/min/kg. The compound further came in with a CC50 at 5 days in series [5] of over 100000 nM. For the same compound, the “Selectivity index (CC50/EC50)” value in series [6] is over 7576. The compound further returned a thermodynamic solubility in series [3] of 640 µg/mL (≈ 1170 µM).

For `COC(=O)C1=C(CN2[C@@H]3COC[C@H]2C[C@H](CC(=O)O)C3)NC(c2nccs2)=N[C@H]1c1cccc(F)c1Br` [Example 74, Exo-2-[(1S,5R)-9-[[(4R)-4-(2-bromo-3-fluoro-phenyl)-5-methoxycarbonyl-2-thiazol-2-yl-1,4-dihydropyrimidin-6-yl]methyl]-3-oxa-9-azabicyclo[3.3.1]nonan-7-yl]acetic acid], the EC50 in series [1] amounted to 10.9 nM. The compound also showed a CLh in series [4] of 0.5 mL/min/kg. For the same compound, the CC50 at 5 days in series [5] is over 100000 nM. In addition, the “Selectivity index (CC50/EC50)” value in series [6] is on record as over 9174. In series [3], this compound yielded a thermodynamic solubility of over 621 µg/mL.

Take `CCOC(=O)C1=C(CN2[C@@H]3COC[C@H]2C[C@H](CC(=O)O)C3)NC(c2nccs2)=N[C@H]1c1ccccc1Br` [Example 77, Exo-2-[(1S,5R)-9-[[(4R)-4-(2-bromophenyl)-5-ethoxycarbonyl-2-thiazol-2-yl-1,4-dihydropyrimidin-6-yl]methyl]-3-oxa-9-azabicyclo[3.3.1]nonan-7-yl]acetic acid]: the EC50 in series [1] was 14 nM. The CLh in series [4] turned out to be 1.3 mL/min/kg. The same compound gave a CC50 at 5 days in series [5] of over 100000 nM. The “Selectivity index (CC50/EC50)” value in series [6] is listed as over 7143. The compound further gave a thermodynamic solubility in series [3] of 491 µg/mL (≈ 833 µM).

For the compound `CCOC(=O)C1=C(CN2[C@@H]3COC[C@H]2C[C@H](CC(=O)O)C3)NC(c2nccs2)=N[C@H]1c1ccc(F)c(F)c1C` [Example 78, Exo-2-[(1S,5R)-9-[[(4S)-4-(3,4-difluoro-2-methyl-phenyl)-5-ethoxycarbonyl-2-thiazol-2-yl-1,4-dihydropyrimidin-6-yl]methyl]-3-oxa-9-azabicyclo[3.3.1]nonan-7-yl]acetic acid], the EC50 in series [1] was 2 nM. This compound also had a CLh in series [4] of 1.9 mL/min/kg. The compound also returned a half-maximal cytotoxic concentration (CC50) at 5 days in series [5] of 73000 nM. Further, in series [6], the “Selectivity index (CC50/EC50)” value is 36515. Also, the thermodynamic solubility in series [3] was found to be 111 µg/mL (≈ 198 µM).

Consider `COC(=O)C1=C(CN2[C@@H]3CC[C@@]2(C(=O)O)COC3)NC(c2nccs2)=N[C@H]1c1ccc(F)cc1Cl` [Example 82, (1R,5S)-8-[[(4R)-4-(2-chloro-4-fluoro-phenyl)-5-methoxycarbonyl-2-thiazol-2-yl-1,4-dihydropyrimidin-6-yl]methyl]-3-oxa-8-azabicyclo[3.2.1]octane-5-carboxylic acid], for which, in series [1], the EC50 worked out at 13.1 nM. In addition, the CLh in series [4] is 0 mL/min/kg. In series [5], the CC50 at 5 days was over 100000 nM. Besides, in series [6], the “Selectivity index (CC50/EC50)” value is on record as over 7634. In addition, the solubility (thermodynamic) in series [3] was over 628 µg/mL.

Consider `CCOC(=O)C1=C(CN2C3CCC2(C(=O)O)COC3)NC(c2nccs2)=N[C@H]1c1cccc(F)c1Cl` (stereo partly drawn) [Example 83, 8-[[(4R)-4-(2-chloro-3-fluoro-phenyl)-5-ethoxycarbonyl-2-thiazol-2-yl-1,4-dihydropyrimidin-6-yl]methyl]-3-oxa-8-azabicyclo[3.2.1]octane-5-carboxylic acid], for which, in series [1], the EC50 is 8.6 nM. Moreover, in series [4], the CLh is 1.6 mL/min/kg. The same compound came in with a CC50 at 5 days in series [5] of 65000 nM. The “Selectivity index (CC50/EC50)” value in series [6] was found to be 7558. Besides, the solubility (thermodynamic) in series [3] came to 564 µg/mL (≈ 1050 µM).

For the compound `COC(=O)C1=C(CN2[C@@H]3CC[C@@]2(C(=O)O)COC3)NC(c2nccs2)=N[C@H]1c1ccc(F)c(F)c1C` [Example 85, (1R,5S)-8-[[(4S)-4-(3,4-difluoro-2-methyl-phenyl)-5-methoxycarbonyl-2-thiazol-2-yl-1,4-dihydropyrimidin-6-yl]methyl]-3-oxa-8-azabicyclo[3.2.1]octane-5-carboxylic acid], the EC50 in series [1] is 6.6 nM. Further, the CLh in series [4] was 1.3 mL/min/kg. This compound returned a CC50 at 5 days in series [5] of over 100000 nM. Further, the “Selectivity index (CC50/EC50)” value in series [6] is given as over 15152. Further, the thermodynamic solubility in series [3] is over 639 µg/mL.

For the compound `COC(=O)C1=C(CN2[C@@H]3C[C@@H](CC(=O)O)C[C@H]2C(F)(F)C3)NC(c2nccs2)=N[C@H]1c1ccc(F)cc1Cl` [Example 109, 2-[(1R,3R,5S)-8-[[(4R)-4-(2-chloro-4-fluoro-phenyl)-5-methoxycarbonyl-2-thiazol-2-yl-1,4-dihydropyrimidin-6-yl]methyl]-6,6-difluoro-8-azabicyclo[3.2.1]octan-3-yl]acetic acid], the EC50 in series [1] amounted to 1.7 nM. For the same compound, the CLh in series [4] worked out at 7.2 mL/min/kg. This compound also gave a CC50 at 5 days in series [5] of over 100000 nM. Also, in series [6], the “Selectivity index (CC50/EC50)” value is on record as over 58824. Also, the solubility (thermodynamic) in series [3] is 107 µg/mL (≈ 188 µM).

`CCOC(=O)C1=C(CN2C3COCC2C(F)(F)[C@H](CC(=O)O)C3)NC(c2nccs2)=N[C@H]1c1cccc(F)c1Cl` (stereo partly drawn) [Example 130, 2-[(7S)-9-[[(4R)-4-(2-chloro-3-fluoro-phenyl)-5-ethoxycarbonyl-2-thiazol-2-yl-1,4-dihydropyrimidin-6-yl]methyl]-6,6-difluoro-3-oxa-9-azabicyclo[3.3.1]nonan-7-yl]acetic acid]: in series [1], the EC50 was determined as 6.4 nM. This compound also yielded a CLh in series [4] of 5.0 mL/min/kg. Also, in series [5], the CC50 at 5 days was found to be 69000 nM. Besides, the “Selectivity index (CC50/EC50)” value in series [6] is listed as 10830. The compound further came in with a solubility (thermodynamic) in series [3] of 219 µg/mL (≈ 366 µM).
